# Test results: patent US20240158754A1, “REDUCING HIGH MANNOSE GLYCAN PROTEIN EXPRESSION USING GUANOSINE 5'-MONOPHOSPHATE” (MERCK SHARP & DOHME LLC, priority 2021, published 2024)
# Entries after “also recorded” stand apart in the source; their conditions may differ.
# Columns and labels:
# Assay type in all cases: cell-based, Chinese hamster
# [1] = tested on: recombinant CHO cell lines expressing monoclonal antibodies (mAb A, mAb B, or mAb C); experiment: 10-day fed-batch assay with GMP (Example 2), statements for all cell lines
# Experimental: (§1) Cells were cultured in Merck proprietary chemically defined media in increasing volume to obtain sufficient number of cells for inoculation. For cell lines expressing mAb A and mAb B, cells were seeded at 0.5×10^6 cells per mL into Merck proprietary chemically defined production medium in two 1 L Erlenmeyer flasks at a final volume of 250 mL in each flask. For cell line expressing mAb C, cells were seeded at 1.0×10^6 cells per mL into production medium in two 1 L Erlenmeyer flasks at a final volume of 250 mL in each flask. Cells were incubated at 36.5° C., with agitation at 100 rpm, in presence of 5% CO2, and humidity ≥70%. Merck proprietary chemically defined nutrient feed media were added to all the cultures on day 3, day 6, and day 8. On Day 6, cells from both 1 L flasks for each cell line were pooled and then aliquoted in 125 mL Erlenmeyer flasks with 30 mL working volume, respectively. A 200 mM stock solution of GMP was prepared by adding Guanosine 5′-monophosphate disodium salt hydrate (Sigma Aldrich, St. Louis, MO) in purified water. After the cells were aliquoted in separate 125 mL test flasks on day 6, GMP was added to the cultures at final concentration of 1 mM or 10 mM. No change in pH and osmolality was observed as a result of the GMP addition. A control condition with no added GMP was also created for each cell line. All conditions were run with two replicates. All cultures were harvested on day 10.
# (§2) Cell culture parameters were analyzed on day 0, 3, 6, 8 and 10, and the corresponding spent medium supernatants were evaluated for antibody titer, charge variants, and glycan analysis on day 10 to assess the effect of GMP on cell growth, viability, titer, and glycan profile of the recombinant antibodies. Cell density and viability were measured using the trypan blue exclusion method with Cedex Bio Analyzer (Roche Diagnostics GmbH, Mannheim, Germany). Culture pH was measured using ABL80 Blood/Gas Analyzer (Radiometer, Denmark). Cell culture metabolites were measured using RX Imola (Randox Laboratories Ltd. Crumlin, UK) and osmolality was measured using a micro-Osmometer 2020 (Advanced Instruments, Norwood, MA).
# (§3) Antibody titer was analyzed using a mAb-specific reverse-phase high-performance liquid chromatography (HPLC) or analytical Protein A HPLC method. Multiple product quality attributes were analyzed on harvested cell-culture fluid (HCCF) after a Protein A chromatography step. Analysis of HMW species was performed by size-exclusion chromatography, analysis of charge variants was performed by ion exchange chromatography, and analysis of N-glycan was performed by ultra-performance liquid chromatography (UPLC) with 2-aminobenzamide (2-AB) labeling.
# [2] = tested on: recombinant CHO cell lines expressing monoclonal antibodies (mAb A, mAb B, or mAb C); experiment: 10-day fed-batch assay of eighteen components (Example 1), statements for all cell lines; details: among the 18 tested components
# Experimental: Experiment was executed by dividing into 6-blocks. In each experiment block, 3 unique test components were assessed and control conditions with no added test component were included for all three cell lines. Cells were cultured in Merck proprietary chemically defined media in increasing volume to obtain sufficient number of cells for inoculation. For cell lines expressing mAb A and mAb B, cells were seeded at 0.5×10^6 cells per mL into Merck proprietary chemically defined production medium in two 1 L Erlenmeyer flasks at a final volume of 250 mL in each flask. […]
# as §2, with “titer, charge variants and glycan” for “titer, charge variants, and glycan”, “effect of added components on cell” for “effect of GMP on cell”, “viability, titer, aggregation, charge variants and glycan” for “viability, titer, and glycan”, “Norwood, MA). […]” for “Norwood, MA).”
# [3] = tested on: recombinant CHO cell line expressing mAb C; experiment: 10-day fed-batch assay of eighteen components (Example 1); details: mAb C cell line (Table 4, untitled)
# Experimental: (§4) Experiment was executed by dividing into 6-blocks. In each experiment block, 3 unique test components were assessed and control conditions with no added test component were included for all three cell lines. Cells were cultured in Merck proprietary chemically defined media in increasing volume to obtain sufficient number of cells for inoculation. […] Merck proprietary chemically defined nutrient feed media were added to all the cultures on day 3, day 6, and day 8. On Day 6, cells from both 1 L flasks for each cell line were pooled and then aliquoted in 125 mL Erlenmeyer flasks with 30 mL working volume, respectively. Stock solutions for each of the tested component were prepared as defined in Table 1 below, and all components were ordered from Sigma Aldrich (St. Louis, MO). Component 6 is GMP. All solutions were prepared in purified water. For each cell line, components were added to the cultures at final concentration at a lower and higher concentrations as per Table 1, respectively, on day 6 of the fed-batch culture. […] A control condition with no added test component was also created for each cell line. All conditions were run with two replicates. All cultures were harvested on day 10.
# (§5) Cell culture parameters were analyzed on day 0, 3, 6, 8 and 10, and the corresponding spent medium supernatants were evaluated for antibody titer, charge variants and glycan analysis on day 10 to assess the effect of added components on cell growth, viability, titer, aggregation, charge variants and glycan profile of the recombinant antibodies. Cell density and viability were measured using the trypan blue exclusion method with Cedex Bio Analyzer (Roche Diagnostics GmbH, Mannheim, Germany). Culture pH was measured using ABL80 Blood/Gas Analyzer (Radiometer, Denmark).
# as §3
# (§6) Data generated from all 6 blocks for all tested components (excluding component 9 and 12) were transformed using a dimensionless number, which is termed as Concentration Impact Factor, and abbreviated as Cf. Cf provides a score value for impact of change in component's concentration on desired response when tested at different concentrations. The equation used to transform data to calculate Cf is described below as equation 1. The first part of the equation represents a directional vector, which determines whether increasing the component concentration from a lower value to a higher value results in a positive or negative response for the measure attribute. The second part of the equation then calculates the magnitude of that change as the concentration changes from low to high.
# (§7) wherein, • Cf. Concentration impact factor (dimensionless number) • H: Response for a measured attribute when component is added at a higher concentration • L: Response for a measured attribute when component is added at a lower concentration • C: Response for a measured attribute […] • hc: high concentration (mM) of the component added • lc: low concentration (mM) of the component added
# [4] = tested on: recombinant CHO cell line expressing mAb B; experiment: as above
# Experimental: as §4, §5, §3, §6, §7
# [5] = tested on: recombinant CHO cell line expressing mAb A; experiment: as above; details: for Relative IVCC (% to Control): added day 6, harvest day 10; for Relative IVCC (% to Control) / Relative Titer (% to Control) / Relative Viability (% to Control): mAb A cell line
# Experimental: as §4, §5, §3, §6, §7
# [6] = tested on: recombinant CHO cell line expressing mAb C; experiment: 10-day fed-batch assay with GMP (Example 2)
# Experimental: as §1, §2, §3
# [7] = tested on: recombinant CHO cell line expressing mAb B; experiment: 10-day fed-batch assay with GMP (Example 2)
# Experimental: as §1, §2, §3
# [8] = tested on: recombinant CHO cell line expressing mAb A; experiment: 10-day fed-batch assay with GMP (Example 2)
# Experimental: as §1, §2, §3
# [9] = Higher Concentration per Table 1
# [10] = Lower Concentration per Table 1
compound,measurement,setting,value
"Nc1nc2c(ncn2[C@@H]2O[C@H](COP(=O)(O)O)[C@@H](O)[C@H]2O)c(=O)[nH]1 [Component 6, Guanosine 5′-monophosphate]",higher order mannose structures,[1],slight decrease
same,impact on cell culture parameters,[1]; GMP 1 mM,no impact
same,HMG content on the recombinant antibodies,[1]; GMP 1 mM and 10 mM,dose dependent decrease
same,high mannose,"[1]; GMP 10 mM, all cell lines",large decreases
same,Man 5 content,"[1]; mAb A, mAb B, and mAb C, listed as GMP",major high mannose species downregulated; also recorded: dose dependent decrease
same,"cell culture performance parameters (IVCC, final viability, titer, ammonia, lactate)",[1]; three CHO cell lines,did not significantly affect
same,"overall HMG content, in particular Man 5 species, of the monoclonal antibodies produced",[2],reduced
same,Relative IVCC (% to Control),[3]; [9],79.88 % to Control
same,Relative Titer (% to Control),[3]; [9],103.8 % to Control
same,Relative Viability (% to Control),[3]; [9],87.81 % to Control
same,Relative IVCC (% to Control),[3]; [10],97.24 % to Control
same,Relative Titer (% to Control),[3]; [10],102.19 % to Control
same,Relative Viability (% to Control),[3]; [10],99.25 % to Control
same,Relative IVCC (% to Control),[4]; [9],90.77 % to Control
same,Relative Titer (% to Control),[4]; [9],94.86 % to Control
same,Relative Viability (% to Control),[4]; [9],95.28 % to Control
same,Relative IVCC (% to Control),[4]; [10],96.14 % to Control
same,Relative Titer (% to Control),[4]; [10],100.81 % to Control
same,Relative Viability (% to Control),[4]; [10],100.77 % to Control
same,Relative IVCC (% to Control),[5]; Higher Concentration per Table 1 (GMP 10 mM),95.08 % to Control
same,Relative Titer (% to Control),[5]; [9],96.14 % to Control
same,Relative Viability (% to Control),[5]; [9],91.8 % to Control
same,Relative IVCC (% to Control),[5]; Lower Concentration per Table 1 (GMP 1 mM),100.61 % to Control
same,Relative Titer (% to Control),[5]; [10],101.88 % to Control
same,Relative Viability (% to Control),[5]; [10],96.75 % to Control
same,dose dependent change in Man 5 peak (Cf),"[5]; mAb A, lower vs higher concentration",largest dose dependent decrease in Man 5 peak
same,Cumulative Titer,[6]; GMP 1 mM,690 mg/L
same,Final viability,[6]; GMP 1 mM,98.5%
same,IVCC,[6]; GMP 1 mM,86.5 10^6 cells · Day/mL
same,high mannose glycans,[6]; GMP 1 mM,slight decrease
same,Cumulative Titer,[6]; GMP 10 mM,701 mg/L
same,Final viability,[6]; GMP 10 mM,86.3%
same,IVCC,[6]; GMP 10 mM,71.1 10^6 cells · Day/mL
same,cell growth,[6]; GMP 10 mM,considerable decrease
same,"Man 5 (HMG level, value relative to control)",[6]; GMP final concentration 1 mM,0.98
same,"Man 5 (HMG level, value relative to control)",[6]; GMP final concentration 10 mM,0.68
same,Cumulative Titer,[7]; GMP 1 mM,314 mg/L
same,Final viability,[7]; GMP 1 mM,86.9%
same,IVCC,[7]; GMP 1 mM,52.7 10^6 cells · Day/mL
same,Cumulative Titer,[7]; GMP 10 mM,296 mg/L
same,Final viability,[7]; GMP 10 mM,82.1%
same,IVCC,[7]; GMP 10 mM,49.7 10^6 cells · Day/mL
same,cell growth,[7]; GMP 10 mM,slight decrease
same,"Man 5 (HMG level, value relative to control)",[7]; GMP final concentration 1 mM,1.02
same,Total HMG (value relative to control),[7]; GMP final concentration 1 mM,1.01
same,"Man 5 (HMG level, value relative to control)",[7]; GMP final concentration 10 mM,0.91
same,Total HMG (value relative to control),[7]; GMP final concentration 10 mM,0.90
same,Cumulative Titer,[8]; GMP 1 mM,158 mg/L
same,Final viability,[8]; GMP 1 mM,85.5%
same,IVCC,[8]; GMP 1 mM,46.4 10^6 cells · Day/mL
same,high mannose glycans,[8]; GMP 1 mM,slight decrease
same,Cumulative Titer,[8]; GMP 10 mM,167 mg/L
same,Final viability,[8]; GMP 10 mM,77.4%
same,IVCC,[8]; GMP 10 mM,44.3 10^6 cells · Day/mL
same,cell growth,[8]; GMP 10 mM,slight decrease
same,"Man 5 (HMG level, value relative to control)",[8]; GMP final concentration 1 mM,0.97
same,Total HMG (value relative to control),[8]; GMP final concentration 1 mM,0.96
same,"Man 5 (HMG level, value relative to control)",[8]; GMP final concentration 10 mM,0.76
same,Total HMG (value relative to control),[8]; GMP final concentration 10 mM,0.76
